Publication PMC11187126, “Structure and dynamics of the pyroglutamylated RF-amide peptide QRFP receptor GPR103” (Nature Communications, 2024)
Read-outs that look alike come from different tables or passages of the source. No end group written: not given here.

Molecular target: T1, GPR103 L193^ECL2A (Homo sapiens, UniProt Q96P65, L193A)
T1 construct: we used human full-length QRFPR-encoding plasmids; expressed in transfected cells; host or cells: HEK293 cells, pCAGGS vector
T1 sequence (Q96P65 1-431 L193A): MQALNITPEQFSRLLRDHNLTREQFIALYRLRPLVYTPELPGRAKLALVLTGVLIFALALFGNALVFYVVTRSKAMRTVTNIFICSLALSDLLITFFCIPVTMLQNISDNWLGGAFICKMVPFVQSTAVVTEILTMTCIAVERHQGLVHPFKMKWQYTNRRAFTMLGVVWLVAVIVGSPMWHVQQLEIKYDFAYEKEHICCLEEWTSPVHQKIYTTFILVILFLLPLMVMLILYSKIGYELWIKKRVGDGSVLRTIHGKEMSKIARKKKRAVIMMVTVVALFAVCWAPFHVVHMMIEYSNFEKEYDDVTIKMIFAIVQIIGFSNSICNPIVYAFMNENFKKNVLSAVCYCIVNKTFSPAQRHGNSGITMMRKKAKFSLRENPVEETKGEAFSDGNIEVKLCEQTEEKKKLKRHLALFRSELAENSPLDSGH
Assay: TGFα shedding assay; Exp. level WT (1:50)
Format: cell-based
Protocol: For the TGFα shedding assay and the flow cytometry analysis, we used human full-length QRFPR-encoding plasmids. Specifically, GPR103 was N-terminally modified with an HA signal sequence followed by a FLAG epitope and then a flexible linker ([…]; the FLAG epitope is underlined) and inserted into the pCAGGS vector. Plasmid encoding GPR103 mutants were generated using Quickchange Site-Directed Mutagensis kit (Agilent).
The TGFα shedding assay was performed as described previously with minor modifications. Plasmid transfection was performed in a 6-well plate with a mixture of 500 ng (per well in a 6-well plate) AP-TGFα-encoding plasmid and 200 ng GPR103-encoding plasmid. After 1-day culture, the transfected cells were harvested by trypsinization, pelleted by centrifugation at 190 × g for 5 min, and washed once with 5 mM HEPES (pH 7.4)-containing Hank’s Balanced Salt Solution (HBSS). After centrifugation, the cells were resuspended in 8 mL of the HEPES-containing HBSS. The cell suspension was seeded in a 96-well culture plate (cell plate) at a volume of 90 μL (per well hereafter) and incubated in a 37 °C incubator with 5% CO2 for 30 min. […] After spinning the cell plates at 190 × g for 2 min, 80 μL of conditioned media was transferred to an empty 96-well plate (conditioned media (CM) plate). Then, 80 μL of AP reaction solution (10 mM p-nitrophenylphosphate (p-NPP), 120 mM Tris-HCl (pH 9.5), 40 mM NaCl, and 10 mM MgCl2) was dispensed into the cell plates and the CM plates. Absorbance at 405 nm of the plates was measured using a microplate reader (SpectraMax 340 PC384, Molecular Devices) before and after 1-h incubation at room temperature. Ligand-induced AP-TGFα release was calculated by subtracting spontaneous AP-TGFα release signal from ligand-induced AP-TGFα release signal. The AP-TGFα release signals were fitted to a four-parameter sigmoidal concentration–response curve, using the Prism 10 software (GraphPad Prism). For each replicate experiment, the pEC50 parameter (negative logarithmic values of EC50 values) of the individual GPR103 mutants were normalized to that of the wild-type GPR103 performed in parallel, and resulting ∆pEC50 values were used to denote ligand response activity of the mutants. […]
Exp. le vel: WT (1:5 0)Exp. le vel: WT (1:5 0)Exp. le vel: WT (1:5 0)Exp. le vel: WT (1:2 0)Exp. le vel: WT (1:2 0)Exp. le vel: WT (1:1 0) […]
L1 4N - t e r mA F2 5N - t e r mA I 2 6N - t e r mA Y 2 9N - t e r mA C 9 82 .5 7A T10 22 .6 1A Exp . l eve l: WT (1 :5)Exp . l evel : >WT (1 :1)Exp. le vel: WT (1:2 0)Exp. le vel: WT (1:2 0)Exp. le vel: WT (1:5 0)Exp . l eve l: WT (1 :1) […]
Exp. le vel: WT (1:1 0)Exp. le vel: WT (1:2 0) C 1 1 83 .2 5AExp. le vel: WT (1:5 0)Exp. le vel: WT (1:5 0)Exp. le vel: WT (1:2 0)Exp . l eve l: WT (1 :5) […]
Exp. le vel: WT (1:5 0)Exp. le vel: WT (1:1 0)Exp. le vel: WT (1:5 0) E203ECL2AExp . l evel : >WT (1 :1)Exp. le vel: WT (1:5 0)Exp. le vel: WT (1:5 0) […]
Exp . l eve l: WT (1 :1) F28Exp. le vel: WT (1:5 0) C 2 8 56 .4 7AExp. le vel: WT (1:2 0) WExp. le vel: WT (1:2 0) F28Exp. le vel: WT (1:5 0)Exp . l evel : >WT (1 :1) […]
Exp. le vel: WT (1:5 0)Exp. le vel: WT (1:5 0) C 3 2 77 .4 8AExp . l eve l: WT (1 :5)Exp . l evel : >WT (1 :1)Exp . l evel : >WT (1 :1) […]
Suppl eme nt ary Figure 1 | Mutational analysis of GPR103. […]
mutants. Data are presented as mean values ± SEM, normally n=3-5; dots), each performed in triplicate. b-d Cell-surface expression (b) and QRFP26-in-duced activation of GPR103 (c, d) were analyzed by the flow cytometry and the TGFα shedding assay, respectively. From the concentration–response curves (a), Emax (c) and ΔpEC50 (d) values relative to the wild type were calculated. Colors in the mutant bars indicate an expression level matching to that of titrated wild type. Statistical analyses were performed using the ordinary one-way ANOVA followed by Dunnett tests with the expression-matched […]

Emax (Exp. #1): 89.95 % WT
Emax (Exp. #2): 86.94 % WT
Emax (Exp. #3): 94.38 % WT
Emax (mean, read-out: Emax): 90.4%
EC50 (n = 3): 0.182 µM
Emax (n = 3, read-out: Emax): 93.8 ± 1.8%
Substance: TSGPLGNLAEELNGYSRKKGGFSFRF-NH2 [QRFP26]
